Laboratory results as given in patent US20220339150A1, “ENDOCANNABINOID SYSTEM-TARGETING PRODRUGS AND THERAPEUTIC USES THEREOF” (priority 2021, published 2022).
Converted amounts (≈) assume the structure as drawn. Where two headings read alike, the source gives them in different places.

Legend:
[1] = Metabolic stability in human liver microsomes; type: in vitro ADME; conditions: for half-life at 15 µg/mL: pH 7.4, Table 3
Procedure: The prodrugs were incubated with the human liver microsomes at 37° C. as an indication of the susceptibility of prodrugs to undergo bioconversion in the liver. The reactions were initiated by adding 1.5 μL of the prodrug stock solution (10 mg/mL in DMSO) to a preheated solution consisting of 748.5 μL potassium phosphate buffer solution (20 mM, pH 7.4, ionic strength 0.5), 200 μL NADPH, and 50 μLhuman liver microsomes (mixed gender, 0.5 ml at 20 mg/mL). The solutions were stirred at a constant temperature of 37° C. At appropriate intervals, 50 μLof samples were mixed with 100 μL of ice-cold MeOH. After immediate mixing and centrifugation (5 min at 14.000 rpm), the resulting clear supernatant was analyzed for the remaining prodrug by HPLC.

[2] = Aqueous solubility of CBD and solubility in various solvents; type: physicochemical
Procedure: CBD was dissolved in 50 mM phosphate buffer, pH 6.8, containing 10% (v/v) EtOH. Suspensions were centrifuged for 3 min at 14000 rpm. Solubilities are between 15-110 μg/ml. Some floating particles can be seen which, once dissolved, cause variation in the result. When the suspension was filtered (Millex 0.45 μm) no detectable (HPLC) CBD was found.
CBD solubility in various solvents when ca. 1 mg was dissolved in ca. 1 ml. Solutions/suspensions were centrifuged, and 100 μl of the sample was mixed with 100 μl MeOH:H2O (1:1).
The solubility of CBD in various solvents is shown below: • 1. 50% EtOH:50% H2O=ca. 1 mg/ml • 2. 15% HP-beta-CD:85% H2O=0.7 mg/ml • 3. 5% HP-beta-CD:0.5% HPMC:84.5% H2O=0.16 mg/ml • 4. 4% BSA:95% H2O=0.07 mg/ml • 5. 90% Propylene glycol:10% H2O=0.87 mg/ml • 6. 30% Solutol® HS 15:10% EtOH:60% H2O=0.96 mg/ml

[3] = system: reconstructed human epidermis cells; test: In vitro skin permeability (SkinEthic Episkin reconstructed human epidermis); type: in vitro ADME; conditions: receiver 15% HP-beta-CD pH 7.4
Procedure: The in vitro permeability studies were carried out in commercial reconstructed human epidermis cells (SkinEthic™ Episkin Reconstructed human epidermis). This model is composed of TR146 cells (derived from a squamous cell carcinoma of the buccal mucosa) cultivated on an inert polycarbonate filter at the air-liquid interface in a chemically defined medium. This model forms an epithelial tissue devoid of stratum corneum, resembling histologically to the mucosa of the oral cavity.
Upon receiving the cells, each insert (0.5 cm^2 or 0.33 cm^2) was placed in a plate containing 800 μL fresh medium at room temperature. The culture dishes were placed in the incubator at 37° C., 5% CO2, and saturated humidity overnight. Next day, the inserts were placed in a plate containing 800 μL 15% HP-β-cyclodextrin in H2O. CBD and CBG, and prodrugs CBDp27 and CBGp1 were dissolved in two different vehicles, 1:1:1 prop gly:water:EtOH/6% Brij 98, and 100% mineral oil. The receiver solution was 15% HP-beta-CD in phosphate buffer (pH 7.4). 400 μL the prodrugs were applied as suspensions (ca. 2 mg/ml). The plates were stirred gently at 37° C. At appropriate intervals, the receptor compartment was sampled (100 μL) and replenished with fresh […] solution each time. The samples were mixed with 100 μL of MeOH, and analyzed for drug (both the parent drug and prodrug) by HPLC-MS.
The flux-values for the rate of delivery of drugs were determined from Fick's law of diffusion.

With `C=C(C)[C@@H]1CCC(C)=C[C@H]1c1c(O)cc(CCCCC)cc1O` [CBD, Cannabidiol] the “Half-life in human liver microsomes (single determinations)” value ([1]; Table 3, 37° C., NADPH) was 23.4 min, the half-life at 15 µg/mL ([1]; both sexes, human, microsomes, 37° C., NADPH, read-out: Half-life in human liver microsomes (single determinations) (converted)) was 36 min and the half-life at 15 µg/mL ([1]; both sexes, human, microsomes, average of determinations, read-out: Half-life in human liver microsomes (avg.) (converted)) was 30 min. For the same molecule, the microsomal CLint at 15 µg/mL ([1]; both sexes, human, microsomes, pH 7.4, Table 3, CLint = k/P, protein 1 mg, read-out: Intrinsic clearance CLint) was 23.1 µL/min/mg, the “Solubility after filtration (HPLC)” value ([2]; 50 mM phosphate buffer, pH 6.8, 10% EtOH, suspension filtered (Millex 0.45 μm)) was “no detectable” and the solubility ([2]; 15% HP-beta-CD:85% H2O, ca. 1 mg in ca. 1 ml) was 700 µg/mL (≈ 2230 µM). For the same molecule, the solubility ([2]; aqueous with cosolvent or surfactant or cyclodextrin, thermodynamic from solid, 4% BSA:95% H2O, ca. 1 mg in ca. 1 ml, read-out: Solubility) was 70 µg/mL (≈ 223 µM), the solubility ([2]; aqueous with cosolvent or surfactant or cyclodextrin, thermodynamic from solid, 5% HP-beta-CD:0.5% HPMC:84.5% H2O, ca. 1 mg in ca. 1 ml, read-out: Solubility) was 160 µg/mL (≈ 509 µM) and the solubility ([2]; aqueous with cosolvent or surfactant or cyclodextrin, thermodynamic from solid, 30% Solutol HS 15:10% EtOH:60% H2O, ca. 1 mg in ca. 1 ml, read-out: Solubility) was 960 µg/mL (≈ 3050 µM). For the same molecule, the solubility ([2]; aqueous with cosolvent or surfactant or cyclodextrin, thermodynamic from solid, 50% EtOH:50% H2O, ca. 1 mg in ca. 1 ml, read-out: Solubility) was ~1000 µg/mL (≈ 3180 µM), the solubility ([2]; organic solvent or mixture, thermodynamic from solid, 90% Propylene glycol:10% H2O, ca. 1 mg in ca. 1 ml, read-out: Solubility) was 870 µg/mL (≈ 2770 µM) and the solubility ([2]; phosphate buffer with 10% (v/v) ethanol, aqueous with cosolvent or surfactant or cyclodextrin, thermodynamic from solid, 50 mM phosphate buffer, pH 6.8, 10% (v/v) EtOH, suspension centrifuged, read-out: Solubility) was 15 to 110 µg/mL (≈ 47.7 to 350 µM). For the same molecule, the “Skin permeation, applied compound (parent or intact prodrug)” value ([3]; vehicle mineral oil) was 0.0233 ± 0.007 nmol/cm^2/h and the “Skin permeation, applied compound (parent or intact prodrug)” value ([3]; vehicle solvent mix (1:1:1 prop gly:water:EtOH/6% Brij 98)) was 1.16 ± 0.12 nmol/cm^2/h.
